From patent publication US20240148714A1, “Triple Negative Breast Cancer Treatment Method” (Exelixis, Inc., priority 2016, published 2024)

Assay: Phase II study in metastatic TNBC: toxicity / adverse events
Type: in vivo, human
Experimental: Experimental design: In this single-arm, two-stage phase 2 study, patients with metastatic TNBC with measurable disease by RECIST and up to 3 lines of prior chemotherapy for metastatic disease received cabozantinib 60 mg daily on a 21-day cycle. Patients were restaged 6 weeks following treatment initiation and every 9 weeks thereafter. The primary endpoint was objective response rate (ORR). Predefined secondary endpoints included progression free survival (PFS) and toxicity. Here, we examined cellular biomarkers using flow cytometry in serial blood samples collected at days 0 (baseline/pre-treatment), 8, 22, 43, and 64 of cabozantinib treatment. Mixed effect models were used to evaluate the changes of biomarker levels over time from baseline to day 64. Wilcoxon signed rank test were used to evaluate whether the change of biomarker levels from baseline to day 8 were different by clinical benefit. Adjusted p-values controlling false discovery rate were used to adjust for multiple comparisons.
Study Design and Treatment: As indicated, this was a single-arm, two-stage phase II study assessing the efficacy of cabozantinib monotherapy in patients with mTNBC. Treatment consisted of oral dosing of cabozantinib at 60 mg daily over a 21-day cycle. Patients underwent radiographic restaging at 6 weeks and every 9 weeks thereafter. Patients with complete or partial RECIST responses continued to receive study treatment, whereas those with progressive disease were taken off study. Dose reductions for toxicity occurred if patients experienced grade 3 or 4 neutropenia or thrombocytopenia, or nonhematologic adverse events. From the starting dose of 60 mg daily, doses were reduced as needed to 40 and 20 mg daily. For the purposes of determining the effect of cabozantinib treatment on pain and analgesic medication use, pain was assessed by a participant-reported questionnaire, and daily analgesic medication usage was recorded. These were completed at baseline and during week 3, 6, and every 6 weeks thereafter until the date of the participant's last follow-up visit.
The primary endpoint was the activity of cabozantinib, as defined by objective response rate (ORR) in patients with mTNBC. Predefined secondary endpoints included progression-free survival (PFS), toxicity, and pain. Correlative studies included analysis of MET and phospho-MET expression in archival tumor tissue, and molecular and cellular biomarkers of cabozantinib. Cellular biomarkers were examined using flow cytometry in serial blood samples collected at days 0 (baseline/pre-treatment), 8, 22, 43, and 64 of cabozantinib treatment. Mixed effect models were used to evaluate the changes of biomarker levels over time from baseline to day 64. Wilcoxon signed rank test were used to evaluate whether the change of biomarker levels from baseline to day 8 were different by clinical benefit. Adjusted p-values controlling false discovery rate were used to adjust for multiple comparisons.

What does the source list for `COc1cc2nccc(Oc3ccc(NC(=O)C4(C(=O)Nc5ccc(F)cc5)CC4)cc3)c2cc1OC` [cabozantinib]?
number of grade 3 adverse events (35 patients): 15; Anorexia (Maximum grade Mild): 10; Bone pain (Maximum grade Mild): 0; Diarrhea (Maximum grade Mild): 8; Dysgeusia (Maximum grade Mild): 5; Elavated lipase (Maximum grade Mild): 0; Elevated alanine aminotransferase (Maximum grade Mild): 6; Elevated aspartate aminotransferase (Maximum grade Mild): 7; Fatigue (Maximum grade Mild): 18; Hypertension (Maximum grade Mild): 6; Hypophosphatemia (Maximum grade Mild): 0; Infection (Maximum grade Mild): 0; Nausea (Maximum grade Mild): 10; Oral mucositis (Maximum grade Mild): 11; PPE (Maximum grade Mild): 3; Prolonged activated partial thromboplastin time (Maximum grade Mild): 0; Thromboembolic event (Maximum grade Mild): 0; Wound dehiscence (Maximum grade Mild): 0; Anorexia (Maximum grade Moderate): 2; Bone pain (Maximum grade Moderate): 0; Diarrhea (Maximum grade Moderate): 6; Dysgeusia (Maximum grade Moderate): 2; Elavated lipase (Maximum grade Moderate): 0; Elevated alanine aminotransferase (Maximum grade Moderate): 0; Elevated aspartate aminotransferase (Maximum grade Moderate): 3; Fatigue (Maximum grade Moderate): 9; Hypertension (Maximum grade Moderate): 4; Hypophosphatemia (Maximum grade Moderate): 0; Infection (Maximum grade Moderate): 0; Nausea (Maximum grade Moderate): 0; Oral mucositis (Maximum grade Moderate): 2; PPE (Maximum grade Moderate): 9; Prolonged activated partial thromboplastin time (Maximum grade Moderate): 0; Thromboembolic event (Maximum grade Moderate): 0; Wound dehiscence (Maximum grade Moderate): 0; Anorexia (Maximum grade Severe): 0; Bone pain (Maximum grade Severe): 1; Diarrhea (Maximum grade Severe): 0; Dysgeusia (Maximum grade Severe): 0; Elavated lipase (Maximum grade Severe): 3; Elevated alanine aminotransferase (Maximum grade Severe): 1; Elevated aspartate aminotransferase (Maximum grade Severe): 2; Fatigue (Maximum grade Severe): 0; Hypertension (Maximum grade Severe): 2; Hypophosphatemia (Maximum grade Severe): 1; Infection (Maximum grade Severe): 1; Nausea (Maximum grade Severe): 0; Oral mucositis (Maximum grade Severe): 0; PPE (Maximum grade Severe): 1; Prolonged activated partial thromboplastin time (Maximum grade Severe): 1; Thromboembolic event (Maximum grade Severe): 1; Wound dehiscence (Maximum grade Severe): 1; Anorexia (all grades): 12 (34) Total (% of 35); Bone pain (all grades): 1 (3) Total (% of 35); Diarrhea (all grades): 14 (40) Total (% of 35); Dysgeusia (all grades): 7 (20) Total (% of 35); Elavated lipase (all grades): 3 (9) Total (% of 35); Elevated alanine aminotransferase (all grades): 7 (20) Total (% of 35); Elevated aspartate aminotransferase (all grades): 12 (34) Total (% of 35); Fatigue (all grades): 27 (77) Total (% of 35); Hypertension (all grades): 12 (34) Total (% of 35); Hypophosphatemia (all grades): 1 (3) Total (% of 35); Infection (all grades): 1 (3) Total (% of 35); Nausea (all grades): 10 (29) Total (% of 35); Oral mucositis (all grades): 13 (37) Total (% of 35); PPE (all grades): 13 (37) Total (% of 35); Prolonged activated partial thromboplastin time (all grades): 1 (3) Total (% of 35); Thromboembolic event (all grades): 1 (3) Total (% of 35); Wound dehiscence (all grades): 1 (3) Total (% of 35); Diarrhea (all grades, possibly related): 40%; Fatigue (all grades, possibly related): 77%; Oral mucositis (all grades, possibly related): 37%; palmar-plantar erythrodysesthesia (PPE) (all grades, possibly related): 37%; patients requiring dose reduction (from 60 mg daily): 34%; dose reduction due to PPE (in vivo): 4 patients; dose reduction due to other toxicities (in vivo): 8 patients; grade 3 elevated aspartate aminotransferase (in vivo): 2 n; grade 3 elevated lipase (in vivo): 3 n; grade 3 hypertension (in vivo): 2 n; grade 4 toxicities (in vivo): no grade 4 toxicities; patients off treatment due to toxicity (in vivo): 9%; patients who omitted at least one dose due to toxicity (in vivo): 26 patients; tolerability (in vivo): well tolerated
